# Activity calls are given as the source filed them. The calls are words filed in the database; no cut-off is given here.
# Assays:
# HepG2 [1] = assay: Insulin-sensitizing activity in human HepG2 cells assessed as increase in glucose consumption at 10 uM relative to control; type: functional
# [2] = molecular target: T1, Peroxisome proliferator-activated receptor gamma (Homo sapiens) (UniProt P37231); assay: Antagonist activity at PPARgamma in HEK293 cells assessed as suppression of rosiglitazone induced PPARgamma transactivation at 30 uM by dual-luciferase reporter gene assay relative to control; type: cell-based; parameters: scale not given: the % may be the effect or the level left
# T1 sequence (whole entry): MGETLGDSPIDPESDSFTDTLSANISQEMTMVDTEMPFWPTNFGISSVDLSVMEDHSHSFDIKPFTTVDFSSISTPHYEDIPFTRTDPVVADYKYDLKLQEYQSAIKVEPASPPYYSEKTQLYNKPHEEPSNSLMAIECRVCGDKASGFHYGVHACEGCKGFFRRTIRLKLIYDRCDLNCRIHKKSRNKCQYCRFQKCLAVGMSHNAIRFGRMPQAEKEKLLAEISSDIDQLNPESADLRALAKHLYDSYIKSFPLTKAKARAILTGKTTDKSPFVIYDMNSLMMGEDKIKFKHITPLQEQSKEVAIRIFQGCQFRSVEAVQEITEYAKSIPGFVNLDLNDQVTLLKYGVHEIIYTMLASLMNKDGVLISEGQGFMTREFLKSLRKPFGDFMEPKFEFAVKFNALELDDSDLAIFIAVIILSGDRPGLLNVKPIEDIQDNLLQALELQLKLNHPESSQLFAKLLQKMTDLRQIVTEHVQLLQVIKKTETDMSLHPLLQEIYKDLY
# HepG2 [3] = assay: Insulin-sensitizing activity in human HepG2 cells assessed as glucose consumption at 10 uM (Rvb= 2.04 +/- 0.12 mM); type: functional
# [4] = molecular target: T1, Peroxisome proliferator-activated receptor gamma (Homo sapiens); assay: Antagonist activity at PPARgamma in HEK293 cells assessed as fold increase in suppression of rosiglitazone induced PPARgamma transactivation at 30 uM by dual-luciferase reporter gene assay relative to CAA; type: cell-based
# HepG2 [5] = assay: Insulin-sensitizing activity in human HepG2 cells assessed as fold change in glucose consumption at 10 uM relative to CAA; type: functional
# Mus musculus = organism: Mus musculus; assay: Hypoglycemic activity in db/db mouse assessed as improvement in oral glucose tolerance measured up to 120 mins by OGTT; type: functional, organism-based
# HepG2 [6] = assay: Insulin-sensitizing activity in human HepG2 cells assessed as fold change in glucose consumption at 10 uM relative to pioglitazone; type: functional
SMILES,Activity (HepG2 [1]) [%],Activity ([2]; filed as antagonist) [%],Activity (HepG2 [3]) [mM],Activity [2] [%],fold change (FC) [4],fold change (FC) (HepG2 [5]),Activity (Mus musculus),fold change (FC) (HepG2 [6])
COc1cc(O)c(C(=O)O)c(CC(=O)c2ccccc2)c1CC=C(C)C,34,73.7,2.73,–,–,–,–,–
COc1cc2c(c(OCC=C(C)C)c1)C(=O)N(C(C)c1cccc(C(F)(F)F)c1)CC2 (centres undefined),30.6,79.4,2.66,–,–,–,–,–
COc1cc(CC(=O)c2ccc(F)cc2)c(C(=O)O)c(O)c1CC=C(C)C,45.6,93.4,2.97,–,–,–,–,–
CCc1ccc(CCOc2ccc(CC3SC(=O)NC3=O)cc2)nc1 (centres undefined) [PIOGLITAZONE],43.3,–,2.92,–,–,–,–,–
COc1cc(CC(=O)c2ccc(Cl)cc2Cl)c(C(=O)O)c(O)c1CC=C(C)C,31.9,83.2,2.69,–,–,–,–,–
COc1cc2c(c(OCC=C(C)C)c1)C(=O)N(C(C)c1ccccc1)CC2 (centres undefined),28.5,81.7,2.62,–,–,–,–,–
COc1cc(CC(=O)c2cccs2)c(C(=O)O)c(O)c1CC=C(C)C,19.1,90.2,2.43,–,–,–,–,–
COc1cc(CS(=O)(=O)c2ccccc2)c(C(=O)O)c(O)c1CC=C(C)C,-3.4,–,1.97,1.9,–,–,–,–
COc1cc(O)c(C(=O)O)c(CC(=O)c2cccs2)c1,9.1,–,2.24,8.7,–,–,–,–
COc1cc2c(c(OCC=C(C)C)c1)C(=O)N(Cc1cccc(C(F)(F)F)c1)CC2,50.6,98.2,3.07,–,1.3,1.5,Active,1.2
COc1cc(CC(=O)c2ccc(Cl)cc2)c(C(=O)O)c(O)c1CC=C(C)C,26.2,–,2.59,28.1,–,–,–,–
COc1cc(O)c(C(=O)O)c(CC(=O)c2ccc(Cl)cc2)c1,16.3,–,2.37,12,–,–,–,–
COc1cc(O)c(C(=O)O)c(CC(=O)c2cccs2)c1CC=C(C)C,18,84.6,2.41,–,–,–,–,–
COc1cc(O)c(C(=O)O)c(CC(=O)c2ccc(F)cc2)c1CC=C(C)C,39.7,72.8,2.85,–,–,–,–,–
COc1cc(O)c(C(=O)O)c(CC(=O)c2ccc(Cl)cc2Cl)c1CC=C(C)C,23.1,54.3,2.52,–,–,–,–,–
COc1cc2c(c(OCC=C(C)C)c1)C(=O)N(Cc1cccc(F)c1)CC2,37.4,75.1,2.8,–,–,–,–,–
COc1cc(O)c(C(=O)O)c(CC(=O)c2ccc(Cl)cc2Cl)c1,10.2,–,2.25,15.9,–,–,–,–
COc1cc(O)c(C(=O)O)c(CS(=O)(=O)c2ccccc2)c1,-9.4,–,1.85,-14,–,–,–,–
COc1cc(O)c(C(=O)O)c(CC(=O)c2ccc(F)cc2)c1,-1,–,2.02,6.3,–,–,–,–
COc1cc(O)c(C(=O)O)c(CS(=O)(=O)c2ccccc2)c1CC=C(C)C,4.9,–,2.14,-1,–,–,–,–
COc1cc2c(c(OCC=C(C)C)c1)C(=O)N(Cc1ccc(F)c(Cl)c1)CC2,36.9,61.1,2.79,–,–,–,–,–
COc1cc(O)c(C(=O)O)c(CC(=O)c2ccc(Cl)cc2)c1CC=C(C)C,27.5,–,2.6,11.3,–,–,–,–

# Source: ChEMBL document CHEMBL5053526, “Synthesis and biological evaluation of cajanonic acid A derivatives as potential PPARγ antagonists” (2021)
